Test results taken from patent US8524745B2 (Allergan, Inc., priority 2011, dated 2013).
pIC50: −log10 of the molar value.

Biological target: T1, CCR2 (Homo sapiens, UniProt P41597)
T1 construct: expressed in transfected cells
Experiment: CCR2 calcium activity assay on FLIPR Tetra in HEK-Gqi5 cells stably expressing CCR2
Type: cell-based
Experimental: HEK-Gqi5 cells stably expressing CCR2 were cultured in (DMEM high glucose, 10% FBS, 1% PSA, 400 μg/ml geneticin and 50 μg/ml hygromycin. Appropriate positive control chemokines (MCP-1, MIP1A or RANTES) was used as the positive control agonist for screening compound-induced calcium activity assayed on the FLIPR^Tetra. The drug plates were prepared in 384-well microplates using the EP3 and the MuItiPROBE robotic liquid handling systems. Compounds were synthesized and tested for CCR2 activity.

T1 sequence (P41597 whole entry, species assumed): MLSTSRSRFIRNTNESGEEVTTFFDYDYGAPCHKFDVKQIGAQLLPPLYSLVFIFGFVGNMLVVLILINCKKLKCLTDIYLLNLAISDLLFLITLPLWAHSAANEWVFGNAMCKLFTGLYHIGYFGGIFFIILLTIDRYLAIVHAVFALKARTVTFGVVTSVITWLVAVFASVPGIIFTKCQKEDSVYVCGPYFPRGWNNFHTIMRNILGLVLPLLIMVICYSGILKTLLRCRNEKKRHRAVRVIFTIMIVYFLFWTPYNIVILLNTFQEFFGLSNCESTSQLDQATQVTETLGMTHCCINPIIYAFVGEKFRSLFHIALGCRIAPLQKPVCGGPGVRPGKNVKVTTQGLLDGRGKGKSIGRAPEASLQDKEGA

CCR2 % ANTAG [%]	pIC50	SMILES
84	5.61	COc1cccc(NS(=O)(=O)c2ccc3c(c2)c(=O)sn3C)c1 [N-(3-methoxyphenyl)-1-methyl-3-oxo-1,3-dihydro-2,1-benzisothiazole-5-sulfonamide]
78	6.68	COc1ccc(S(=O)(=O)Nc2ccc(Cl)cc2NS(=O)(=O)c2ccc3c(c2)c(=O)sn3C)cc1 [N-(5-chloro-2-{[(4-methoxyphenyl)sulfonyl]amino}phenyl)-1-methyl-3-oxo-1,3-dihydro-2,1-benzisothiazole-5-sulfonamide]
0	< 5.08	COc1cc(Cl)c(C)cc1NS(=O)(=O)c1ccc2c(c1)c(=O)sn2C [N-(4-chloro-2-methoxy-5-methylphenyl)-1-methyl-3-oxo-1,3-dihydro-2,1-benzisothiazole-5-sulfonamide]
103	6.15	Cn1sc(=O)c2cc(S(=O)(=O)Nc3cc(C(F)(F)F)ccc3NS(=O)(=O)c3cccs3)ccc21 [1-methyl-3-oxo-N-{2-[(2-thienylsulfonyl)amino]-5-(trifluoromethyl)phenyl}-1,3-dihydro-2,1-benzisothiazole-5-sulfonamide]
79	5.78	Cn1sc(=O)c2cc(S(=O)(=O)Nc3cc(Cl)c(Cl)cc3Cl)ccc21 [1-methyl-3-oxo-N-(2,4,5-trichlorophenyl)-1,3-dihydro-2,1-benzisothiazole-5-sulfonamide]
85	6.37	CC(C)c1ccc(NS(=O)(=O)c2cccs2)c(NS(=O)(=O)c2ccc3c(c2)c(=O)sn3C)c1 [N-{5-isopropyl-2-[(2-thienylsulfonyl)amino]phenyl}-1-methyl-3-oxo-1,3-dihydro-2,1-benzisothiazole-5-sulfonamide]
58	5.60	Cn1sc(=O)c2cc(S(=O)(=O)Nc3ccccc3NC(=O)Nc3cccs3)ccc21 [1-methyl-3-oxo-N-(2-{[(2-thienylamino)carbonyl]amino}phenyl)-1,3-dihydro-2,1-benzisothiazole-5-sulfonamide]
80	5.65	CC(=O)Nc1ccc(S(=O)(=O)Nc2ccc(Cl)cc2NS(=O)(=O)c2ccc3c(c2)c(=O)sn3C)cc1 [N-(4-{[(4-chloro-2-{[(1-methyl-3-oxo-1,3-dihydro-2,1-benzisothiazol-5-yl)sulfonyl]amino}phenyl)amino]sulfonyl}phenyl)acetamide]
93	5.91	Cn1sc(=O)c2cc(S(=O)(=O)N[C@@H]3CCCC[C@@H]3NS(=O)(=O)c3ccc(Cl)c(C(F)(F)F)c3)ccc21 (relative stereo) [rel-N-[(1R,2S)-2-({[4-chloro-3-(trifluoromethyl)phenyl]sulfonyl}amino)cyclohexyl]-1-methyl-3-oxo-1,3-dihydro-2,1-benzisothiazole-5-sulfonamide]
69	6.17	CN(C)c1cccc(S(=O)(=O)Nc2ccc(Cl)cc2NS(=O)(=O)c2ccc3c(c2)c(=O)sn3C)c1 [N-[5-chloro-2-({[3-(dimethylamino)phenyl]sulfonyl}amino)phenyl]-1-methyl-3-oxo-1,3-dihydro-2,1-benzisothiazole-5-sulfonamide]
94	5.71	CCc1ccc(NS(=O)(=O)c2cccs2)c(NS(=O)(=O)c2ccc3c(c2)c(=O)sn3C)c1 [N-{5-ethyl-2-[(2-thienylsulfonyl)amino]phenyl}-1-methyl-3-oxo-1,3-dihydro-2,1-benzisothiazole-5-sulfonamide]
92	6.28	Cn1sc(=O)c2cc(S(=O)(=O)Nc3ccccc3NS(=O)(=O)c3ccc(Cl)c(Cl)c3)ccc21 [N-(2-{[(3,4-dichlorophenyl)sulfonyl]amino}phenyl)-1-methyl-3-oxo-1,3-dihydro-2,1-benzisothiazole-5-sulfonamide]
64	5.78	CN(C)c1ccc(S(=O)(=O)Nc2ccc(Cl)cc2NS(=O)(=O)c2ccc3c(c2)c(=O)sn3C)cc1 [N-[5-chloro-2-({[4-(dimethylamino)phenyl]sulfonyl}amino)phenyl]-1-methyl-3-oxo-1,3-dihydro-2,1-benzisothiazole-5-sulfonamide]
65	5.68	Cn1sc(=O)c2cc(S(=O)(=O)N3CCN(S(=O)(=O)c4cccs4)c4ccccc43)ccc21 [1-methyl-5-{[4-(2-thienylsulfonyl)-3,4-dihydroquinoxalin-1(2H)-yl]sulfonyl}-2,1-benzisothiazol-3(1H)-one]
53	5.77	Cn1ccc(S(=O)(=O)Nc2ccccc2NS(=O)(=O)c2ccc3c(c2)c(=O)sn3C)n1 [1-methyl-N-(2-{[(1-methyl-1H-pyrazol-3-yl)sulfonyl]amino}phenyl)-3-oxo-1,3-dihydro-2,1-benzisothiazole-5-sulfonamide]
104	6.29	Cn1sc(=O)c2cc(S(=O)(=O)Nc3ccccc3NS(=O)(=O)c3ccc(Cl)s3)ccc21 [N-(2-{[(5-chloro-2-thienyl)sulfonyl]amino}phenyl)-1-methyl-3-oxo-1,3-dihydro-2,1-benzisothiazole-5-sulfonamide]

CCR2 % ANTAG [%]	pIC50	SMILES
48	6.00	Cn1sc(=O)c2cc(S(=O)(=O)Nc3cc(Cl)cnc3NS(=O)(=O)c3cccs3)ccc21 [N-{5-chloro-2-[(2-thienylsulfonyl)amino]pyridin-3-yl}-1-methyl-3-oxo-1,3-dihydro-2,1-benzisothiazole-5-sulfonamide]
92	6.04	Cn1sc(=O)c2cc(S(=O)(=O)Nc3cccc(OC(F)(F)F)c3)ccc21 [1-methyl-3-oxo-N-[3-(trifluoromethoxy)phenyl]-1,3-dihydro-2,1-benzisothiazole-5-sulfonamide]
91	5.66	Cc1cc(NS(=O)(=O)c2ccc3c(c2)c(=O)sn3C)c(NS(=O)(=O)c2cccs2)cc1C [N-{4,5-dimethyl-2-[(2-thienylsulfonyl)amino]phenyl}-1-methyl-3-oxo-1,3-dihydro-2,1-benzisothiazole-5-sulfonamide]
104	5.85	COc1ccc(NS(=O)(=O)c2cccs2)c(NS(=O)(=O)c2ccc3c(c2)c(=O)sn3C)c1 [N-{5-methoxy-2-[(2-thienylsulfonyl)amino]phenyl}-1-methyl-3-oxo-1,3-dihydro-2,1-benzisothiazole-5-sulfonamide]
95	6.31	Cn1sc(=O)c2cc(S(=O)(=O)Nc3cc(Cl)ccc3NS(=O)(=O)c3ccc(O)cc3)ccc21 [N-(5-chloro-2-{[(4-hydroxyphenyl)sulfonyl]amino}phenyl)-1-methyl-3-oxo-1,3-dihydro-2,1-benzisothiazole-5-sulfonamide]
95	6.30	Cc1ccc(S(=O)(=O)Nc2ccc(Cl)cc2NS(=O)(=O)c2ccc3c(c2)c(=O)sn3C)s1 [N-(5-chloro-2-{[(5-methyl-2-thienyl)sulfonyl]amino}phenyl)-1-methyl-3-oxo-1,3-dihydro-2,1-benzisothiazole-5-sulfonamide]
0	< 5.08	Cn1sc(=O)c2cc(S(=O)(=O)Nc3ccccc3NS(=O)(=O)c3c[nH]cn3)ccc21 [N-{2-[(1H-imidazol-4-ylsulfonyl)amino]phenyl}-1-methyl-3-oxo-1,3-dihydro-2,1-benzisothiazole-5-sulfonamide]
102	6.42	Cc1ccc(NS(=O)(=O)c2cccs2)c(NS(=O)(=O)c2ccc3c(c2)c(=O)sn3C)c1 [1-methyl-N-{5-methyl-2-[(2-thienylsulfonyl)amino]phenyl}-3-oxo-1,3-dihydro-2,1-benzisothiazole-5-sulfonamide]
89	6.44	Cn1sc(=O)c2cc(S(=O)(=O)Nc3ccccc3NS(=O)(=O)c3cc(Cl)c(Cl)s3)ccc21 [N-(2-{[(4,5-dichloro-2-thienyl)sulfonyl]amino}phenyl)-1-methyl-3-oxo-1,3-dihydro-2,1-benzisothiazole-5-sulfonamide]
83	6.40	COc1cccc(S(=O)(=O)Nc2ccc(Cl)cc2NS(=O)(=O)c2ccc3c(c2)c(=O)sn3C)c1 [N-(5-chloro-2-{[(3-methoxyphenyl)sulfonyl]amino}phenyl)-1-methyl-3-oxo-1,3-dihydro-2,1-benzisothiazole-5-sulfonamide]
44	5.56	Cn1sc(=O)c2cc(S(=O)(=O)N3CCC(NS(=O)(=O)c4cccs4)C3)ccc21 (stereo not shown) [N-{1-[(1-methyl-3-oxo-1,3-dihydro-2,1-benzisothiazol-5-yl)sulfonyl]pyrrolidin-3-yl}thiophene-2-sulfonamide]
35	6.26	CN(C)c1ccc(NS(=O)(=O)c2cccs2)c(NS(=O)(=O)c2ccc3c(c2)c(=O)sn3C)c1
84		Cn1sc(=O)c2cc(S(=O)(=O)Nc3cccc(Cl)c3)ccc21 [N-(3-chlorophenyl)-1-methyl-3-oxo-1,3-dihydro-2,1-benzisothiazole-5-sulfonamide]
56		COc1ccc(C(=O)Nc2ccc(Cl)cc2NS(=O)(=O)c2ccc3c(c2)c(=O)sn3C)cc1 [N-(4-chloro-2-{[(1-methyl-3-oxo-1,3-dihydro-2,1-benzisothiazol-5-yl)sulfonyl]amino}phenyl)-4-methoxybenzamide]
92	6.19	COc1cccc(S(=O)(=O)Nc2cc(Cl)c(Cl)cc2NS(=O)(=O)c2ccc3c(c2)c(=O)sn3C)c1 [N-(4,5-dichloro-2-{[(3-methoxyphenyl)sulfonyl]amino}phenyl)-1-methyl-3-oxo-1,3-dihydro-2,1-benzisothiazole-5-sulfonamide]
31		Cn1sc(=O)c2cc(S(=O)(=O)Nc3ccc(C#N)cc3NS(=O)(=O)c3cccs3)ccc21 [N-{4-cyano-2-[(2-thienylsulfonyl)amino]phenyl}-1-methyl-3-oxo-1,3-dihydro-2,1-benzisothiazole-5-sulfonamide]
